Results reported in patent US11931366B2, “Compositions and methods of use thereof for treatment of proteinopathies” (priority 2018, dated 2024).
Entries after “also recorded” stand apart in the source; their conditions may differ. Like-named read-outs stand apart in the source and are kept apart here.

Experiments:
[1] = system: transgenic C. elegans expressing human mutant alpha-1-antitrypsin gene fused to GFP; assay: High-throughput phenotypic drug screen and dose response in the C. elegans model of ATD (mutant AT accumulation); type: in vivo; conditions: for reduction of mutant AT accumulation: 8-point dose response curves, FIG. 4B, 5, 11; for hit in high-throughput screening campaign: C. elegans model of ATD, FIG. 4A
[2] = system: mutant AT protein accumulation in liver; type: in vivo, mouse; conditions: vs control (CTR)
[3] = system: autophagy pathway (LC3, p62); assay: Autophagy markers (LC3-II/I, p62) following fluphenazine treatment; type: in vivo; conditions: for autophagic flux: liver
[4] = following fluphenazine treatment

Row | Compound | reduction of mutant AT accumulation [1] | hit in high-throughput screening campaign [1] | other results
1 | FC(F)(F)c1ccc(SCCCN2CCN(c3cccc(Cl)c3)CC2)nc1 [AW00794, Piperazine, 1-(3-chlorophenyl)-4-[3-[[5-(trifluoromethyl)-2-pyridinyl]thio]propyl]-] | reduce mutant AT protein accumulation; also recorded: reduces AT accumulation |  | 
2 | OC(CNCc1ccc(Cl)cc1)CSc1ccccc1 (stereo not drawn) [RDR 03172] | reduce mutant AT protein accumulation; also recorded: reducing AT accumulations in a dose-dependent manner |  | 
3 | OCCN1CCN(CCCN2c3ccccc3Sc3ccc(C(F)(F)F)cc32)CC1 [fluphenazine] | dose-dependent reduction of mutant AT; also recorded: reduce mutant AT accumulation in a dose-dependent manner | hit compounds | Sirius red staining (collagen deposition, liver fibrosis) ([2]; mouse liver sections): significantly reduced; accumulation of mutant AT protein (purple dots) in liver sections ([2]; transgenic mouse model of ATD): significantly reduced accumulation of mutant AT protein; percent area of purple dots (quantification of AT accumulations) ([2]; transgenic mouse model of ATD): significantly reduced; accumulation of mutant AT protein (purple dots) in liver sections ([2]; transgenic mouse model of ATD, listed as Fluphenazine): reduces mutant AT accumulation; reduction of mutant AT accumulation ([1]; listed as Fluphenazine): reduce misfolded AT protein accumulation in a dose and time-dependent manner; LC3-II/I ratio [3, 4]: increase; p62 [3, 4]: reduction; autophagic flux [3]: enhancing autophagic flux; autophagic flux ([3]; listed as Fluphenazine): enhances autophagic flux
4 | OCCN1CCN(CCCN2c3ccccc3Sc3ccc(Cl)cc32)CC1 [perphenazine] | reduce mutant AT accumulation in a dose-dependent manner | hit compounds | 
5 | CN1CCN(CCCN2c3ccccc3Sc3ccc(Cl)cc32)CC1 [prochlorperazine] | reduce mutant AT accumulation in a dose-dependent manner | hit compounds | 
6 | CCSc1ccc2c(c1)N(CCCN1CCN(C)CC1)c1ccccc1S2 [thiethylperazine] | reduce mutant AT accumulation in a dose-dependent manner |  | 
7 | CSc1ccc2c(c1)N(CCC1CCCCN1C)c1ccccc1S2 (stereo not drawn) [thioridazine] | reduce mutant AT accumulation in a dose-dependent manner |  | 
8 | CN1CCN(CCCN2c3ccccc3Sc3ccc(C(F)(F)F)cc32)CC1 [trifluoperazine] | reduce mutant AT accumulation in a dose-dependent manner | hit compounds | 
